“Also recorded” adds a separate entry of the source.
Experiments:
[1] = tested on: engineered cardiac tissue construct (ECTC) from neonatal rat ventricular cells; experiment: I-Wire ECTC contractility under β-adrenergic stimulation; type: cell-based
Experimental: (§1) Method step 2. Cell isolation and culturing: Neonatal rat ventricular cells were obtained from 2-day-old neonatal Sprague-Dawley rats using a trypsin digestion protocol with agitation overnight at 4° C. and plating cells for 40 minutes at 37° C. The population of isolated cells is heterogeneous and besides cardiomyocytes includes cardiofibroblasts, endothelial cells, and vascular smooth muscle cells. The presence of the different cell types is important for formation of the extracellular matrix and tissue structure. The isolated cells were mixed with fibrinogen (5 mg/mL, Sigma-Aldrich, St. Louis, Mo., USA)/Matrigel™ (100 μL/mL, BD Biosciences, San Jose, Calif., USA) plus thrombin (15 μL, 100 U/mL, Sigma-Aldrich, St. Louis, Mo., USA), and pipetted in a casting mold (FIG. 21A). Thereafter, cells were kept at 37° C. in a 5% CO2 humidified cell culture incubator for 1 hour. When fibrinogen was polymerized, 2 mL of cell culture media was added per well. The culture medium consisted of DMEM (Gibco Fisher Scientific, Waltham, Mass., USA), 10% horse serum (Gibco Fisher Scientific, Waltham, Mass., USA), 2% chick embryo extract (US Biological Fisher Scientific, Waltham, Mass., USA), 1% penicillin/streptomycin (Gibco Fisher Scientific, Waltham, Mass., USA), 10 μg/mL insulin (Sigma-Aldrich, St. Louis, Mo., USA), 400 μM tranexamic acid (Sigma-Aldrich, St. Louis, Mo., USA), and 33 μg/mL aprotinin (Sigma-Aldrich, St. Louis, Mo., USA). Over time, the preparation condensed to form elongated muscle fibers of 350-400 μm in diameter and 7 mm long. After 13-15 days of culturing, the contractility and stiffness of the ECTC (FIGS. 21B and 21C) could be measured using our microscope-based optical setup (FIG. 3A).
Method step 3. Registration system for the contraction recording: To apply tensional force to the ECTC and detect contraction, a flexible PEEK tube of 365 μm in outer diameter and 120 μm bore (Putnam Plastics, Dayville, Conn., USA) and 28 mm length was glued to a Plexiglas cantilever adjuster attached to a cantilever support plate with two embedded position-control magnets (FIG. 3A). The stiffness of the probe was roughly matched to that of the ECTC; one might choose to use either a softer or stiffer probe to study ECTCs with different mechanical properties. The cantilever support plate with cantilever adjuster and flexible probe was mounted with a friction fit to the condenser of the inverted optical microscope (Eclipse Ti, Nikon, Melville, N.Y., USA) equipped with a digital camera system (Zyla sCMOS Camera, Andor Technology, Belfast, Northern Ireland). […]
Method step 4. Registration of action potential and reconstruction of electrical and mechanical restitution: Action potentials were recorded by utilizing floating micropipettes filled with 3-M KCl. […]

[2] = tested on: engineered cardiac tissue construct (ECTC) from neonatal rat ventricular cells; experiment: I-Wire ECTC elasticity measurement (stretch-stress curve, Young's modulus); type: cell-based
Experimental: as §1
Method step 3. […]
At first, the linear part of the ECTC stretch-force curve was fitted using a linear equation and the amount of change of ECTC length was calculated. […]

isolated mice CMs = conditions: after application of blebbistatin; cited from earlier work

Structure (SMILES)	contraction duration ([1]; 1 μM isoproterenol (β-adrenergic stimulation))	contraction velocity ([1]; 1 μM isoproterenol, applied force exceeded 0.233 mN, P<0.05, N=7)	developed force ([1]; 1 μM isoproterenol, applied transverse forces greater than 0.156 mN, P<0.05, N=7)	force exerted by the ECTC during contraction and relaxation ([1]; 1 μM isoproterenol, separate analysis of systole and diastole)	decrease of ECTC stiffness ([2]; 6 μM blebbistatin)	Young's modulus of the ECTC ([2]; 6 μM blebbistatin, untreated (relaxation) 13.4±2.5 kPa, N=5, P<0.05)	slope of the fitted straight line of the stretch-stress curve ([2]; blebbistatin-treated ECTCs, 6 μM, systolic 4.9, diastolic 15.1 %/mN)	lowering of the diastolic stress (isolated mice CMs)
CC(C)NCC(O)c1ccc(O)c(O)c1 (centres unmarked) [isoproterenol]	shortening	statistically significant acceleration	significant increase	significant change occurs only in the phase of relaxation; also recorded: significant effect of the isoproterenol only during the diastolic phase	–	–	–	–
Cc1ccc2c(c1)C(=O)C1(O)CCN(c3ccccc3)C1=N2 (centres unmarked) [blebbistatin]	–	–	–	–	23%	10.3±2.8 kPa	17.5 %/mN	30%

From US10761001B2, “Devices and methods for tension measurements and applications of same” (Vanderbilt University, priority 2016, dated 2020)
